Data from patent US10131652B2, “Pyrimidinyloxy benzene derivatives as herbicides” (E. I. DU PONT DE NEMOURS AND COMPANY, priority 2014, dated 2018).
Where two headings read alike, the source gives them in different places.

How the values were obtained:
Assay in all cases: Test D pre-/postemergence plant response
Format in all cases: in vivo
[1] = tested on: morningglory (Ipomoea coccinea); conditions: Ipomoea; for pest or weed control at 16 g/ha: 16 g ai/ha; for pest or weed control at 31 g/ha: 31 g ai/ha; for pest or weed control at 62 g/ha: 62 g ai/ha; for pest or weed control at 125 g/ha: 125 g ai/ha
Summary of the method: (§1)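 Visual injury scoring (0–100) at 13 to 15 days in greenhouse. Preemergence sprays on seeded loam/sand; postemergence sprays on 1–4 leaf plants.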

[2] = tested on: oilseed rape (Brassica napus); conditions: Brassica napus; for plant injury at 16 g/ha: 16 g ai/ha; for plant injury at 31 g/ha: 31 g ai/ha; for plant injury at 62 g/ha: 62 g ai/ha; for plant injury at 125 g/ha: 125 g ai/ha
Summary of the method: as §1

[3] = tested on: pigweed (Amaranthus retroflexus); conditions: Amaranthus retroflexus; for pest or weed control at 16 g/ha: 16 g ai/ha; for pest or weed control at 31 g/ha: 31 g ai/ha; for pest or weed control at 62 g/ha: 62 g ai/ha; for pest or weed control at 125 g/ha: 125 g ai/ha
Summary of the method: as §1

[4] = tested on: ragweed (common ragweed, Ambrosia elatior); conditions: Ambrosia artemisiifolia; for pest or weed control at 16 g/ha: 16 g ai/ha; for pest or weed control at 31 g/ha: 31 g ai/ha; for pest or weed control at 62 g/ha: 62 g ai/ha; for pest or weed control at 125 g/ha: 125 g ai/ha
Summary of the method: as §1

soybean (Glycine max) = conditions: Glycine max; for plant injury at 16 g/ha: 16 g ai/ha; for plant injury at 31 g/ha: 31 g ai/ha; for plant injury at 62 g/ha: 62 g ai/ha; for plant injury at 125 g/ha: 125 g ai/ha
Summary of the method: as §1

[5] = tested on: velvetleaf (Abutilon theophrasti); conditions: Abutilon theophrasti; for pest or weed control at 16 g/ha: 16 g ai/ha; for pest or weed control at 31 g/ha: 31 g ai/ha; for pest or weed control at 62 g/ha: 62 g ai/ha; for pest or weed control at 125 g/ha: 125 g ai/ha
Summary of the method: as §1

[6] = tested on: waterhemp (common waterhemp, Amaranthus rudis); conditions: Amaranthus tuberculatus; for pest or weed control at 16 g/ha: 16 g ai/ha; for pest or weed control at 31 g/ha: 31 g ai/ha; for pest or weed control at 62 g/ha: 62 g ai/ha; for pest or weed control at 125 g/ha: 125 g ai/ha
Summary of the method: as §1

[7] = tested on: winter wheat (Triticum aestivum); conditions: Triticum aestivum; for plant injury at 16 g/ha: 16 g ai/ha; for plant injury at 31 g/ha: 31 g ai/ha; for plant injury at 62 g/ha: 62 g ai/ha; for plant injury at 125 g/ha: 125 g ai/ha
Summary of the method: as §1

[8] = tested on: yellow nutsedge (Cyperus esculentus); conditions: Cyperus; for pest or weed control at 16 g/ha: 16 g ai/ha; for pest or weed control at 31 g/ha: 31 g ai/ha; for pest or weed control at 62 g/ha: 62 g ai/ha; for pest or weed control at 125 g/ha: 125 g ai/ha
Summary of the method: as §1

[9] = pre-emergence, Preemergence, scale 0 to 100 (0 no effect, 100 complete control), read-out: Plant response rating, Morningglory
[10] = pre-emergence, Preemergence, scale 0 to 100 (0 no effect, 100 complete control), read-out: Plant response rating, Oilseed Rape
[11] = pre-emergence, Preemergence, scale 0 to 100 (0 no effect, 100 complete control), read-out: Plant response rating, Pigweed
[12] = pre-emergence, Preemergence, scale 0 to 100 (0 no effect, 100 complete control), read-out: Plant response rating, Ragweed
[13] = pre-emergence, Preemergence, scale 0 to 100 (0 no effect, 100 complete control), read-out: Plant response rating, Soybean
[14] = pre-emergence, Preemergence, scale 0 to 100 (0 no effect, 100 complete control), read-out: Plant response rating, Velvetleaf
[15] = pre-emergence, Preemergence, scale 0 to 100 (0 no effect, 100 complete control), read-out: Plant response rating, Waterhemp
[16] = pre-emergence, Preemergence, scale 0 to 100 (0 no effect, 100 complete control), read-out: Plant response rating, Wheat
[17] = pre-emergence, Preemergence, scale 0 to 100 (0 no effect, 100 complete control), read-out: Plant response rating, Nutsedge, Yellow

## FC(F)(F)c1cc(-c2ccccc2Oc2ncc(Cl)cn2)no1 [Compound 200, 5-chloro-2-[2-[5-(trifluoromethyl)-3-isoxazolyl]phenoxy]pyrimidine]
[1]; post-emergence, Postemergence, read-out: Plant response rating (scale 0 to 100), Morningglory
  pest or weed control at 16 g/ha: 55%
[1]; post-emergence, Postemergence, scale 0 to 100 (0 no effect, 100 complete control), read-out: Morningglory plant response rating
  pest or weed control at 31 g/ha: 50%
[1]; post-emergence, Postemergence, scale 0 to 100, 0 no effect, 100 complete control, read-out: Morningglory plant response rating
  pest or weed control at 62 g/ha: 85%
[1]; post-emergence, Postemergence, scale 0 to 100, 0 no effect, 100 complete control, read-out: Plant response rating, Morningglory
  pest or weed control at 125 g/ha: 98%
[1]; pre-emergence, Preemergence, read-out: Plant response rating (scale 0 to 100), Morningglory
  pest or weed control at 125 g/ha: 90%
[1]; [9]
  pest or weed control at 16 g/ha: 5%
  pest or weed control at 31 g/ha: 45%
  pest or weed control at 62 g/ha: 70%
[2]; post-emergence, Postemergence, read-out: Plant response rating (scale 0 to 100), Oilseed Rape
  plant injury at 16 g/ha: 70%
[2]; post-emergence, Postemergence, scale 0 to 100 (0 no effect, 100 complete control), read-out: Oilseed Rape plant response rating
  plant injury at 31 g/ha: 85%
[2]; post-emergence, Postemergence, scale 0 to 100, 0 no effect, 100 complete control, read-out: Oilseed Rape plant response rating
  plant injury at 62 g/ha: 100%
[2]; post-emergence, Postemergence, scale 0 to 100, 0 no effect, 100 complete control, read-out: Plant response rating, Oilseed Rape
  plant injury at 125 g/ha: 100%
[2]; pre-emergence, Preemergence, read-out: Plant response rating (scale 0 to 100), Oilseed Rape
  plant injury at 125 g/ha: 100%
[2]; [10]
  plant injury at 16 g/ha: 85%
  plant injury at 31 g/ha: 100%
  plant injury at 62 g/ha: 100%
[3]; post-emergence, Postemergence, read-out: Plant response rating (scale 0 to 100), Pigweed
  pest or weed control at 16 g/ha: 90%
[3]; post-emergence, Postemergence, scale 0 to 100 (0 no effect, 100 complete control), read-out: Pigweed plant response rating
  pest or weed control at 31 g/ha: 85%
[3]; post-emergence, Postemergence, scale 0 to 100, 0 no effect, 100 complete control, read-out: Pigweed plant response rating
  pest or weed control at 62 g/ha: 85%
[3]; post-emergence, Postemergence, scale 0 to 100, 0 no effect, 100 complete control, read-out: Plant response rating, Pigweed
  pest or weed control at 125 g/ha: 98%
[3]; pre-emergence, Preemergence, read-out: Plant response rating (scale 0 to 100), Pigweed
  pest or weed control at 125 g/ha: 100%
[3]; [11]
  pest or weed control at 16 g/ha: 100%
  pest or weed control at 31 g/ha: 100%
  pest or weed control at 62 g/ha: 100%
[4]; post-emergence, Postemergence, read-out: Plant response rating (scale 0 to 100), Ragweed
  pest or weed control at 16 g/ha: 30%
[4]; post-emergence, Postemergence, scale 0 to 100 (0 no effect, 100 complete control), read-out: Ragweed plant response rating
  pest or weed control at 31 g/ha: 55%
[4]; post-emergence, Postemergence, scale 0 to 100, 0 no effect, 100 complete control, read-out: Ragweed plant response rating
  pest or weed control at 62 g/ha: 60%
[4]; post-emergence, Postemergence, scale 0 to 100, 0 no effect, 100 complete control, read-out: Plant response rating, Ragweed
  pest or weed control at 125 g/ha: 40%
[4]; pre-emergence, Preemergence, read-out: Plant response rating (scale 0 to 100), Ragweed
  pest or weed control at 125 g/ha: 80%
[4]; [12]
  pest or weed control at 16 g/ha: 0%
  pest or weed control at 31 g/ha: 5%
  pest or weed control at 62 g/ha: 70%
Soybean (Glycine max); post-emergence, Postemergence, read-out: Plant response rating (scale 0 to 100), Soybean
  plant injury at 16 g/ha: 60%
Soybean (Glycine max); post-emergence, Postemergence, scale 0 to 100 (0 no effect, 100 complete control), read-out: Soybean plant response rating
  plant injury at 31 g/ha: 85%
Soybean (Glycine max); post-emergence, Postemergence, scale 0 to 100, 0 no effect, 100 complete control, read-out: Soybean plant response rating
  plant injury at 62 g/ha: 90%
Soybean (Glycine max); post-emergence, Postemergence, scale 0 to 100, 0 no effect, 100 complete control, read-out: Plant response rating, Soybean
  plant injury at 125 g/ha: 98%
Soybean (Glycine max); pre-emergence, Preemergence, read-out: Plant response rating (scale 0 to 100), Soybean
  plant injury at 125 g/ha: 85%
Soybean (Glycine max); [13]
  plant injury at 16 g/ha: 100%
  plant injury at 31 g/ha: 10%
  plant injury at 62 g/ha: 40%
[5]; post-emergence, Postemergence, read-out: Plant response rating (scale 0 to 100), Velvetleaf
  pest or weed control at 16 g/ha: 30%
[5]; post-emergence, Postemergence, scale 0 to 100 (0 no effect, 100 complete control), read-out: Velvetleaf plant response rating
  pest or weed control at 31 g/ha: 60%
[5]; post-emergence, Postemergence, scale 0 to 100, 0 no effect, 100 complete control, read-out: Velvetleaf plant response rating
  pest or weed control at 62 g/ha: 70%
[5]; post-emergence, Postemergence, scale 0 to 100, 0 no effect, 100 complete control, read-out: Plant response rating, Velvetleaf
  pest or weed control at 125 g/ha: 75%
[5]; pre-emergence, Preemergence, read-out: Plant response rating (scale 0 to 100), Velvetleaf
  pest or weed control at 125 g/ha: 100%
[5]; [14]
  pest or weed control at 16 g/ha: 100%
  pest or weed control at 31 g/ha: 100%
  pest or weed control at 62 g/ha: 100%
[6]; post-emergence, Postemergence, read-out: Plant response rating (scale 0 to 100), Waterhemp
  pest or weed control at 16 g/ha: 80%
[6]; post-emergence, Postemergence, scale 0 to 100 (0 no effect, 100 complete control), read-out: Waterhemp plant response rating
  pest or weed control at 31 g/ha: 90%
[6]; post-emergence, Postemergence, scale 0 to 100, 0 no effect, 100 complete control, read-out: Waterhemp plant response rating
  pest or weed control at 62 g/ha: 98%
[6]; post-emergence, Postemergence, scale 0 to 100, 0 no effect, 100 complete control, read-out: Plant response rating, Waterhemp
  pest or weed control at 125 g/ha: 100%
[6]; pre-emergence, Preemergence, read-out: Plant response rating (scale 0 to 100), Waterhemp
  pest or weed control at 125 g/ha: 100%
[6]; [15]
  pest or weed control at 16 g/ha: 98%
  pest or weed control at 31 g/ha: 100%
  pest or weed control at 62 g/ha: 100%
[7]; post-emergence, Postemergence, read-out: Plant response rating (scale 0 to 100), Wheat
  plant injury at 16 g/ha: 5%
[7]; post-emergence, Postemergence, scale 0 to 100 (0 no effect, 100 complete control), read-out: Wheat plant response rating
  plant injury at 31 g/ha: 10%
[7]; post-emergence, Postemergence, scale 0 to 100, 0 no effect, 100 complete control, read-out: Wheat plant response rating
  plant injury at 62 g/ha: 25%
[7]; post-emergence, Postemergence, scale 0 to 100, 0 no effect, 100 complete control, read-out: Plant response rating, Wheat
  plant injury at 125 g/ha: 20%
[7]; pre-emergence, Preemergence, read-out: Plant response rating (scale 0 to 100), Wheat
  plant injury at 125 g/ha: 40%
[7]; [16]
  plant injury at 16 g/ha: 0%
  plant injury at 31 g/ha: 5%
  plant injury at 62 g/ha: 20%
[8]; post-emergence, Postemergence, read-out: Plant response rating (scale 0 to 100), Nutsedge, Yellow
  pest or weed control at 16 g/ha: 5%
[8]; post-emergence, Postemergence, scale 0 to 100 (0 no effect, 100 complete control), read-out: Nutsedge, Yellow plant response rating
  pest or weed control at 31 g/ha: 5%
[8]; post-emergence, Postemergence, scale 0 to 100, 0 no effect, 100 complete control, read-out: Nutsedge, Yellow plant response rating
  pest or weed control at 62 g/ha: 5%
[8]; post-emergence, Postemergence, scale 0 to 100, 0 no effect, 100 complete control, read-out: Plant response rating, Nutsedge, Yellow
  pest or weed control at 125 g/ha: 15%
[8]; pre-emergence, Preemergence, read-out: Plant response rating (scale 0 to 100), Nutsedge, Yellow
  pest or weed control at 125 g/ha: 15%
[8]; [17]
  pest or weed control at 16 g/ha: 0%
  pest or weed control at 31 g/ha: 0%
  pest or weed control at 62 g/ha: 0%
